Source: US9708336B2, “Metallo-beta-lactamase inhibitors” (priority 2014, dated 2017)
Read-outs that look alike come from different tables or passages of the source.

Legend:
[1] = target: VIM-1 (Pseudomonas aeruginosa (strain ATCC 15692 / DSM 22644 / CIP 104116 / JCM 14847 / LMG 12228 / 1C / PRS 101 / PAO1), UniProt A0A0F7KYQ8); experiment: Enzyme activity: determination of IC50, fluorescence assay with CCF2-FA substrate (VIM-1); assay type: biochemical
[2] = target: IMP-1 (Serratia marcescens, UniProt P52699); experiment: biochemical; assay type: biochemical
[3] = target: NDM-1 (Klebsiella pneumoniae, UniProt C7C422); experiment: biochemical; assay type: biochemical
[4] = test system: Serratia marcescens expressing IMP-1 (CL5741); experiment: Antibiotic potentiation activity: synergistic concentration (MITC95) with imipenem, OD600 growth; assay type: cell-based; details: 95% growth inhibition
Procedure, shortened: (§1)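 Growth after 22–24 h at 35 °C is measured spectrophotometrically for bacteria incubated with compound plus imipenem (4 μg/ml in-well, or 1 μg/ml). Cells come from overnight agar colonies resuspended in saline and diluted 1:100 in 1.1× CAMHB.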

[5] = test system: Escherichia coli expressing NDM-1 (CLB30016); experiment: as above; assay type: cell-based; details: 95% growth inhibition
Procedure, shortened: as §1

[6] = test system: Klebsiella pneumoniae expressing VIM-1 (IHMA599644); experiment: as above; assay type: cell-based; details: 95% growth inhibition
Procedure, shortened: as §1

[7] = VIM-1 enzyme, CCF2-FA fluorescence assay, read-out: VIM-1 IC50
[8] = IMP-1 enzyme, CCF2-FA fluorescence assay, read-out: IMP-1 IC50
[9] = NDM-1 enzyme, CCF2-FA fluorescence assay, read-out: NDM-1 IC50
[10] = Serratia marcescens expressing IMP-1 (CL5741)
[11] = Escherichia coli expressing NDM-1 (CLB30016)
[12] = Klebsiella pneumoniae expressing VIM-1 (IHMA599644)
[13] = VIM-1 enzyme, CCF2-FA substrate, read-out: VIM-1 IC50
[14] = IMP-1 enzyme, CCF2-FA substrate, read-out: IMP-1 IC50
[15] = NDM-1 enzyme, CCF2-FA substrate, read-out: NDM-1 IC50
[16] = Serratia marcescens CL5741 (IMP-1)
[17] = Klebsiella pneumoniae IHMA599644 (VIM-1)
[18] = VIM-1 IC50, VIM-1 enzyme, CCF2-FA substrate

Chain of IMP-1 (P52699 whole entry, looked up): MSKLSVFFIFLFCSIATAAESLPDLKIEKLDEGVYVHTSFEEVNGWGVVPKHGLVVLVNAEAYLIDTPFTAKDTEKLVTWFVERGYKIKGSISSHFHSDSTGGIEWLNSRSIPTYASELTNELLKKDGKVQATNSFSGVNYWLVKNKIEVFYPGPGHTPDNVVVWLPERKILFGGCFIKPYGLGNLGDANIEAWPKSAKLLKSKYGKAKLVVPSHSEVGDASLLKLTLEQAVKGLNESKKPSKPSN
Chain of NDM-1 (C7C422 whole entry, looked up, species assumed): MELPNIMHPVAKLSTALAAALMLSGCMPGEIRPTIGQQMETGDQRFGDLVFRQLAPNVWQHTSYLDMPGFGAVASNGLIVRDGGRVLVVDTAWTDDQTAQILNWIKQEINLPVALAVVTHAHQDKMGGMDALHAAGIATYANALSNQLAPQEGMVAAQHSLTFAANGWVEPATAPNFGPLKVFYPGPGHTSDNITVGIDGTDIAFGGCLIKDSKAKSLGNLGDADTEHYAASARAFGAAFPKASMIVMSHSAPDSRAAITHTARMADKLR

| Structure (SMILES) | IC50 [1, 7] [nM] | IC50 [2, 8] [nM] | IC50 [3, 9] [nM] | Serratia marcescens MITC95 [4, 10] [µM] | Escherichia coli MITC95 [5, 11] [µM] | Klebsiella pneumoniae MITC95 [6, 12] [µM] | IC50 [1, 13] [nM] | IC50 [2, 14] [nM] | IC50 [3, 15] [nM] | Serratia marcescens MITC95 [4, 16] [µM] | Escherichia coli MITC95 ([5]; (CLB30016, NDM-1)) [µM] | Klebsiella pneumoniae MITC95 [6, 17] [µM] | IC50 [1, 18] [nM] | IC50 [2] [nM] | IC50 [3] [nM] |
| --- | --- | --- | --- | --- | --- | --- | --- | --- | --- | --- | --- | --- | --- | --- | --- |
| N#Cc1nc2c(-c3ccc(C(F)(F)F)c(S(N)(=O)=O)c3-c3nnn[nH]3)cccc2s1 [Example 483, 3-(2-Cyanobenzo[d]thiazol-4-yl)-2-(1H-tetrazol-5-yl)-6-(trifluoromethyl)benzenesulfonamide] | 0.216 | 2.12 | 0.755 | 25 | 6.25 | 12.5 | – | – | – | – | – | – | – | – | – |
| NS(=O)(=O)c1c(C(F)(F)F)ccc(-c2cccn3cncc23)c1-c1nnn[nH]1 [Example 485, 3-(Imidazo[1,5-a]pyridin-8-yl)-2-(1H-tetrazol-5-yl)-6-(trifluoromethyl)benzenesulfonamide] | 0.197 | 4.98 | 1.57 | 12.5 | 3.125 | 6.25 | – | – | – | – | – | – | – | – | – |
| NS(=O)(=O)c1c(C(F)(F)F)ccc(-c2cccc3ncccc23)c1-c1nn[nH]n1 [Example 486, 3-(Quinolin-5-yl)-2-(2H-tetrazol-5-yl)-6-(trifluoromethyl)benzenesulfonamide] | 0.134 | 1.19 | 0.192 | 0.1367 | 1.208 | 4.531 | – | – | – | – | – | – | – | – | – |
| Cc1ccc(C(F)(F)F)c(S(N)(=O)=O)c1-c1nnn[nH]1 [Example 487, 3-methyl-2-(1H-tetrazol-5-yl)-6-(trifluoromethyl)benzenesulfonamide] | 70.4 | 56.4 | 102 | 1.563 | 1.563 | 25 | – | – | – | – | – | – | – | – | – |
| CC(C)c1ccc(C(F)(F)F)c(S(N)(=O)=O)c1-c1nnn[nH]1 [Example 488, 3-isopropyl-2-(1H-tetrazol-5-yl)-6-(trifluoromethyl)benzenesulfonamide] | 3.44 | 18.8 | 7.9 | 0.7813 | 1.563 | 4.688 | – | – | – | – | – | – | – | – | – |
| NS(=O)(=O)c1c(C(F)(F)F)ccc(C2CC2)c1-c1nnn[nH]1 [Example 489, 3-cyclopropyl-2-(1H-tetrazol-5-yl)-6-(trifluoromethyl)benzenesulfonamide] | 9.83 | 20.7 | 19.6 | 0.7813 | 1.563 | 9.375 | – | – | – | – | – | – | – | – | – |
| NS(=O)(=O)c1c(C(F)(F)F)ccc(C2CCCC2)c1-c1nnn[nH]1 [Example 490, 3-cyclopentyl-2-(1H-tetrazol-5-yl)-6-(trifluoromethyl)benzenesulfonamide] | 2.35 | 5.61 | 2.57 | 0.375 | 1.281 | 9.375 | – | – | – | – | – | – | – | – | – |
| NS(=O)(=O)c1c(C(F)(F)F)ccc(C2CCCCC2)c1-c1nnn[nH]1 [Example 491, 3-cyclohexyl-2-(1H-tetrazol-5-yl)-6-(trifluoromethyl)benzenesulfonamide] | – | – | – | – | – | – | 0.505 | 1.11 | 0.435 | 0.0625 | 0.6406 | 3.792 | – | – | – |
| NS(=O)(=O)c1c(C(F)(F)F)ccc(C2CCNc3ccccc32)c1-c1nnn[nH]1 (stereo not drawn) [Example 493, 3-(1,2,3,4-Tetrahydroquinolin-4-yl)-2-(1H-tetrazol-5-yl)-6-(trifluoromethyl)benzenesulfonamide] | – | – | – | – | – | – | 0.133 | 4.5 | 1.69 | 0.3906 | 1.563 | 3.125 | – | – | – |
| NS(=O)(=O)c1c(C(F)(F)F)ccc(C2CCn3cncc3C2)c1-c1nnn[nH]1 (stereo not drawn) [Example 494, 3-(5,6,7,8-Tetrahydroimidazo[1,5-a]pyridin-7-yl)-2-(1H-tetrazol-5-yl)-6-(trifluoromethyl)benzenesulfonamide] | – | – | – | – | – | – | 0.427 | 13 | 4.43 | 1.172 | 0.3906 | 1.563 | – | – | – |
| NS(=O)(=O)c1c(C(F)(F)F)ccc([C@H]2CC[C@@H](O)CC2)c1-c1nnn[nH]1 [Example 495] | – | – | – | – | – | – | 22.1 | 4.26 | 1.87 | 0.5859 | 2.344 | 25 | – | – | – |
| NS(=O)(=O)c1c(C(F)(F)F)ccc([C@H]2CC[C@H](O)CC2)c1-c1nnn[nH]1 [Example 496] | – | – | – | – | – | – | 0.397 | 1.09 | 0.506 | 0.3906 | 1.172 | 3.125 | – | – | – |
| NCC1(N)CCC(c2ccc(C(F)(F)F)c(S(N)(=O)=O)c2-c2nnn[nH]2)CC1 (stereo not drawn) [Example 497, 3-(4-Amino-4-(aminomethyl)cyclohexyl)-2-(1H-tetrazol-5-yl)-6-(trifluoromethyl)benzenesulfonamide] | – | – | – | – | – | – | – | 25.8 | 3.06 | 0.3906 | 0.5859 | 6.25 | 59.5 | – | – |
| NCC[C@H]1CC[C@@H](c2ccc(C(F)(F)F)c(S(N)(=O)=O)c2-c2nnn[nH]2)CC1 [Example 498, 3-(cis 4-(2-aminoethyl)cyclohexyl)-2-(1H-tetrazol-5-yl)-6-(trifluoromethyl)benzenesulfonamide] | – | – | – | – | – | – | – | 5.5 | 2.15 | 0.1953 | 0.3906 | 4.688 | 6.37 | – | – |
| NCC[C@H]1CC[C@H](c2ccc(C(F)(F)F)c(S(N)(=O)=O)c2-c2nnn[nH]2)CC1 [Example 499, 3-(trans 4-(2-aminoethyl)cyclohexyl)-2-(1H-tetrazol-5-yl)-6-(trifluoromethyl)benzenesulfonamide] | – | – | – | – | – | – | – | 7.04 | 1.93 | 0.1953 | 0.7813 | 1.172 | 0.328 | – | – |
| NC[C@H]1CC[C@@H](c2ccc(C(F)(F)F)c(S(N)(=O)=O)c2-c2nnn[nH]2)CC1 [Example 500, 3-(cis 4-(Aminomethyl)cyclohexyl)-2-(1H-tetrazol-5-yl)-6-(trifluoromethyl)benzenesulfonamide] | – | – | – | – | – | – | 12.2 | – | 3.52 | 1.563 | 2.344 | 31.25 | – | 9.86 | – |
| NC[C@H]1CC[C@H](c2ccc(C(F)(F)F)c(S(N)(=O)=O)c2-c2nnn[nH]2)CC1 [Example 501, 3-(trans 4-(aminomethyl)cyclohexyl)-2-(1H-tetrazol-5-yl)-6-(trifluoromethyl)benzenesulfonamide] | – | – | – | – | – | – | 0.516 | – | 1.52 | 1.563 | 1.172 | 1.563 | – | 5.39 | – |
| N=C(N)NC[C@H]1CC[C@@H](c2ccc(C(F)(F)F)c(S(N)(=O)=O)c2-c2nnn[nH]2)CC1 [Example 502, 3-(cis 4-(guanidinomethyl)cyclohexyl)-2-(1H-tetrazol-5-yl)-6-(trifluoromethyl)benzenesulfonamide] | – | – | – | – | – | – | 1.44 | 1.19 | – | 1.563 | 1.563 | 9.375 | – | – | 0.52 |
| N=C(N)NC[C@H]1CC[C@H](c2ccc(C(F)(F)F)c(S(N)(=O)=O)c2-c2nnn[nH]2)CC1 [Example 503, 3-(trans 4-(guanidinomethyl)cyclohexyl)-2-(1H-tetrazol-5-yl)-6-(trifluoromethyl)benzenesulfonamide] | – | – | – | – | – | – | 0.183 | 4.2 | – | 0.1953 | 0.1953 | 0.7813 | – | – | 1.14 |
| NS(=O)(=O)c1c(C(F)(F)F)ccc([C@H]2CC[C@@H](C3=NCCN3)CC2)c1-c1nnn[nH]1 [Example 505, 3-(cis 4-(4,5-dihydro-1H-imidazol-2-yl)cyclohexyl)-2-(1H-tetrazol-5-yl)-6-(trifluoromethyl)benzenesulfonamide] | – | – | – | – | – | – | – | 22.2 | – | 6.25 | 6.25 | 12.5 | 0.937 | – | 9.54 |
